# Test results as given in patent publication US4268510A, “1,3-Benzoxazine trichloromethyl derivatives, compositions and use” (Imperial Chemical Industries Limited, priority 1978, dated 1981).
# System: methane production from ruminal fluid
# Experiment: in vitro assay of inhibition of methane production from ruminal fluid
# Type: cell-based, steers (pooled rumen fluid)
# Conditions: at 1 μg./ml.; in vitro rumen fluid, 39° C., 15-16 hours
# Procedure: Rumen fluid is collected on a regular routine basis from two steers, which are fed on the same hay-plus-concentrate diet. Sampling time is standardised as far as possible, and the fluid from the two animals is pooled on a 50/50 basis. Large particulate matter is removed by filtering the pooled fluid through four layers of muslin cloth. The filtrate is then diluted in the ratio of one volume of filtrate to three volumes of an artificial rumen fluid (prepared as described by G. L. Bales et al., Journal of Dairy Science, 1976, volume 59, page 1850, but omitting acetic acid), and the pH of the mixture is adjusted to 6.9-7.0 with saturated aqueous sodium carbonate solution. Aliquots (50 ml.) of this mixture are dispensed into 100 ml. conical flasks containing dried ground hay (0.5 g.), and each flask is used to test a test compound at a particular concentration.
# The test compound is added to the conical flask as a solution in ethanol, the flask is flushed with carbon dioxide gas, stoppered with a suba-seal, and incubated at 39° C. for 15-16 hours. After one hour, a narrow bore needle is inserted through the suba-seal to relieve the gas pressure, and the needle is withdrawn 30 minutes before the incubation is ended. Fermentation is then stopped by placing the flask in ice, and after 15 minutes cooling, the gas over the liquid is analysed for methane by gas chromatography, and the concentration of the test compound required to produce a 50% reduction in methane production (ED50 in μg./ml.) is calculated.
# The test of methane inhibition described in Example 12 was repeated for various other compounds, to give the results shown below. The results are expressed as the percentage inhibition of methane production caused by 1 μg./ml. of a test compound, except for those compounds indicated by *, for which 3 μg./ml. was used.
row,SMILES,inhibition at 1 µg/mL [%]
1,"O=C1NC(C(Cl)(Cl)Cl)Oc2ccc(C=NO)cc21 (stereo not shown) [drawing 8; R1=H; R3=HO . N:CH; R5=H, 3,4-dihydro-6-hydroxyiminomethyl-2-trichloromethyl-2-H-benzo[e]-[1,3]-oxazin-4-one]",41
2,"Nc1ccc2c(c1)C(=O)NC(C(Cl)(Cl)Cl)O2 (stereo not shown) [drawing 8; R1=H; R3=NH2; R5=H, 6-amino-3,4-dihydro-2-trichloromethyl-2H-benzo[e]-[1,3]-oxazin-4-one]",98
3,O=C1NC(C(Cl)(Cl)Cl)Oc2ccc(S(=O)(=O)O)cc21 (stereo not shown) [drawing 8; R1=H; R3=SO3 H; R5=H],11
4,"Cc1cccc2c1NC(C(Cl)(Cl)Cl)OC2 (stereo not shown) [drawing 9; R1=CH3; R3=H; R11=H, 1,2-dihydro-8-methyl-2-trichloromethyl-4H-benzo[d]-[1,3]-oxazine]",100
5,"CC(=O)Oc1ccc2c(c1)COC(C(Cl)(Cl)Cl)N2 (stereo not shown) [drawing 9; R1=H; R3=CH3 CO . O; R11=H, 6-acetoxy-1,2-dihydro-2-trichloromethyl-4H-benzo[d]-[1,3]-oxazine]",30
6,"COC(=O)c1ccc2c(c1)COC(C(Cl)(Cl)Cl)N2 (stereo not shown) [drawing 9; R1=H; R3=CH3 O . CO; R11=H, methyl 1,2-dihydro-2-trichloromethyl-4H-benzo[d]-[1,3]-oxazine-6-carboxylate]",100
7,"Clc1ccc2c(c1)COC(C(Cl)(Cl)Cl)N2 (stereo not shown) [drawing 9; R1=H; R3=Cl; R11=H, 6-chloro-1,2-dihydro-2-trichloromethyl-4H-benzo[d]-[1,3]-oxazine]",100
8,"CCOC(=O)C1OC(C(Cl)(Cl)Cl)Nc2ccccc21 (stereo not shown) [drawing 9; R1=H; R3=H; R11=C2 H5 O . CO, ethyl 1,2-dihydro-2-trichloromethyl-4H-benzo[d]-[1,3]oxazine-4-carboxylate]",24
9,"O=C(Nc1ccccc1)C1OC(C(Cl)(Cl)Cl)Nc2ccccc21 (stereo not shown) [drawing 9; R1=H; R3=H; R11=C6 H5 NH . CO, N-phenyl 1,2-dihydro-2-trichloromethyl-4H-benzo[d]-[1,3]-oxazine-4-carboxamide]",57
10,"COC(=O)C1OC(C(Cl)(Cl)Cl)Nc2ccccc21 (stereo not shown) [drawing 9; R1=H; R3=H; R11=CH3 O . CO, methyl 1,2-dihydro-2-trichloromethyl-4H-benzo[d]-[1,3]-oxazine-4-carboxylate]",46
11,"O=C(O)C1OC(C(Cl)(Cl)Cl)Nc2ccccc21 (stereo not shown) [drawing 9; R1=H; R3=H; R11=COOH, 1,2-dihydro-2-trichloromethyl-4H-benzo-[d]-[1,3]-oxazine-4-carboxylic acid]",14
12,"CC(C)OC(=O)C1OC(C(Cl)(Cl)Cl)Nc2ccccc21 (stereo not shown) [drawing 9; R1=H; R3=H; R11=i-C3 H7 O . CO, isopropyl 1,2-dihydro-2-trichloromethyl-4H-benzo[d]-[1,3]-oxazine-4-carboxylate]",37
13,"CCCOC(=O)C1OC(C(Cl)(Cl)Cl)Nc2ccccc21 (stereo not shown) [drawing 9; R1=H; R3=H; R11=n-C3 H7 O . CO, propyl 1,2-dihydro-2-trichloromethyl-4H-benzo[d]-[1,3]-oxazine-4-carboxylate]",31
14,"CCCCOC(=O)C1OC(C(Cl)(Cl)Cl)Nc2ccccc21 (stereo not shown) [drawing 9; R1=H; R3=H; R11=n-C4 H9 O . CO, butyl 1,2-dihydro-2-trichloromethyl-4H-benzo[d]-[1,3]-oxazine-4-carboxylate]",12
15,"CC(=O)N1C(=O)c2ccccc2N(C(C)=O)C1C(Cl)(Cl)Cl (stereo not shown) [drawing 10; R3=H; R5=CH3 CO; R6=CH3 CO, 1,3-diacetyl-1,2-dihydro-2-trichloromethylquinazolin-4-one]",90

# Same assay, conditions: at 3 μg./ml.; in vitro rumen fluid, 39° C., 15-16 hours; read-out: % Methane Inhibition (compounds indicated by *)
row,SMILES,inhibition at 3 µg/mL [%]
1,"CCOC(=O)c1ccc2c(c1)C(=O)NC(C(Cl)(Cl)Cl)N2 (stereo not shown) [drawing 10; R3=C2 H5 O . CO; R5=H; R6=H, ethyl 1,2-dihydro-4-oxo-2-trichloromethylquinazoline-6-carboxylate]",71
2,"O=C(O)c1ccc2c(c1)C(=O)NC(C(Cl)(Cl)Cl)N2 (stereo not shown) [drawing 10; R3=COOH; R5=H; R6=H, 1,2-dihydro-4-oxo-2-trichloromethylquinazoline-6-carboxylic acid]",5

# System: rumen metabolism
# Experiment: not given
# Conditions: known prior art, administered to ruminant animals; cited from earlier work
row,SMILES,effect on rumen metabolism (reducing methane production)
1,O=CC(Cl)(Cl)Cl [chloral],beneficial effect on rumen metabolism
2,NC(=O)C(Cl)(Cl)Cl [trichloroacetamide],beneficial effect on rumen metabolism
